The results in this text go back to ChEMBL document CHEMBL3991601, “The target landscape of clinical kinase drugs” (Science, 2017).

Activity calls are given as the source filed them. Cut-off read from the data, not from the text of the source, for most assays here: actives have a measured Kd and inactives only a lower limit. Where only a bound is given, the exact number is not on record here.

Assay [1] deals with T1, Acyl-CoA dehydrogenase family member 10 (Homo sapiens, UniProt Q6JQN1).
T1 sequence (Q6JQN1 whole entry): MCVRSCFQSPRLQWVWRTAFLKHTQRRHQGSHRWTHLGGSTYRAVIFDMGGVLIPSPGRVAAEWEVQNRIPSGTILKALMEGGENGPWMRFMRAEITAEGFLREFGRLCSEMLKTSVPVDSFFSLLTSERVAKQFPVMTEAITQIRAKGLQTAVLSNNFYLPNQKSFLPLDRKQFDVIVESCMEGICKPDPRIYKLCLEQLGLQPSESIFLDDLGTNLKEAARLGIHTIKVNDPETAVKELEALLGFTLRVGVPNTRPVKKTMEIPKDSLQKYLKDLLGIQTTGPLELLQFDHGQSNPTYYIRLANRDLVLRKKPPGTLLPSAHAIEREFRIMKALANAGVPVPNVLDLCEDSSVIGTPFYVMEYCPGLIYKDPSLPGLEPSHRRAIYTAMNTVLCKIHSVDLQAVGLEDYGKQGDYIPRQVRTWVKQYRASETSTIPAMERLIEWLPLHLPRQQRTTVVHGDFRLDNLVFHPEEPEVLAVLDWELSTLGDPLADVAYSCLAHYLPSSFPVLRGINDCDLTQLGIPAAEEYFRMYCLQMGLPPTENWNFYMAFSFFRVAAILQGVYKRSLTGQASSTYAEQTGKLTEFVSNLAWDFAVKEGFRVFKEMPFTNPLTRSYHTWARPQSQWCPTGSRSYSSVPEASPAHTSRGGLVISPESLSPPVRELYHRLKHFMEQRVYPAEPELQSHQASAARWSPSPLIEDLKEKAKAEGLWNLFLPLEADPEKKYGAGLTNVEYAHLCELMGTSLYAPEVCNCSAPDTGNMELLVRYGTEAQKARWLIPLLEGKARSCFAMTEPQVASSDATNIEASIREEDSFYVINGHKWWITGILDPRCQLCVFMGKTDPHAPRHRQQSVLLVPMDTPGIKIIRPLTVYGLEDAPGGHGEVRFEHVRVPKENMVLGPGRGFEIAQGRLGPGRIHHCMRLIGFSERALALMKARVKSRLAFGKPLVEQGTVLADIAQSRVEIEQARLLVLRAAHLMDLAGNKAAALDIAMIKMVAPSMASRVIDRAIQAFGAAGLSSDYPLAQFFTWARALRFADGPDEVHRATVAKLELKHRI

Assay [2] deals with Calcium/calmodulin-dependent protein kinase kinase 2 (Homo sapiens, UniProt Q96RR4).
Calcium/calmodulin-dependent protein kinase kinase 2, sequence (Q96RR4 whole entry): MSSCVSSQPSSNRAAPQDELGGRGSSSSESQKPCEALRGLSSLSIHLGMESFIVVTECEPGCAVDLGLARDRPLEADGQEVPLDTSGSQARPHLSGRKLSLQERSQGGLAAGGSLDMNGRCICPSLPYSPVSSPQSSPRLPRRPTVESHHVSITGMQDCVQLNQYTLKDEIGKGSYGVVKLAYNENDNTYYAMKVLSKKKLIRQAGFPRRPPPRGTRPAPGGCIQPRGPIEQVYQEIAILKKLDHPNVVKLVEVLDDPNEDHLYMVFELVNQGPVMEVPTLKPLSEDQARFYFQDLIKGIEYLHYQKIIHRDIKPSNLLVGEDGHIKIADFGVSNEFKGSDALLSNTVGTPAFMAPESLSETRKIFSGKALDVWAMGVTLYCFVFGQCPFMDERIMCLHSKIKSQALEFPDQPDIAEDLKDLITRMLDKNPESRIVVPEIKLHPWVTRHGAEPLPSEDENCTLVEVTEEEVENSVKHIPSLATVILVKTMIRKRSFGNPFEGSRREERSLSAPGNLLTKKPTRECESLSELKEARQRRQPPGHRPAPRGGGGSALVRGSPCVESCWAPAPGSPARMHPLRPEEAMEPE
Assay [3] concerns the target Cyclin-dependent kinase 7 (Homo sapiens, UniProt P50613).
Assay [4] deals with Dual specificity tyrosine-phosphorylation-regulated kinase 1A (Homo sapiens, UniProt Q13627).
The target in assay [5] is T2, Ferrochelatase, mitochondrial (Homo sapiens, UniProt P22830).
T2 sequence (P22830 whole entry): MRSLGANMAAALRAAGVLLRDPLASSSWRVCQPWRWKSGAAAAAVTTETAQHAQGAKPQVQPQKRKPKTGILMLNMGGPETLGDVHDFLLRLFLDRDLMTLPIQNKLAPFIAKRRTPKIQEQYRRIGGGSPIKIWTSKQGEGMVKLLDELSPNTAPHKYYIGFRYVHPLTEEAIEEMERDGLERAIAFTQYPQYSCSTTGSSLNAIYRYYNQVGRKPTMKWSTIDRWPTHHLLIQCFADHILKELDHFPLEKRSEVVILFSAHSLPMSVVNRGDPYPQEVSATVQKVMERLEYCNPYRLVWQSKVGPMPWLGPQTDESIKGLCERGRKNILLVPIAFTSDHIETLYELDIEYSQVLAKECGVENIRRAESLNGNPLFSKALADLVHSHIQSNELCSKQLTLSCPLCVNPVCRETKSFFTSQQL

Assay [6] addresses T3, Interleukin-1 receptor-associated kinase 3 (Homo sapiens, UniProt Q9Y616).
T3 sequence (Q9Y616 whole entry): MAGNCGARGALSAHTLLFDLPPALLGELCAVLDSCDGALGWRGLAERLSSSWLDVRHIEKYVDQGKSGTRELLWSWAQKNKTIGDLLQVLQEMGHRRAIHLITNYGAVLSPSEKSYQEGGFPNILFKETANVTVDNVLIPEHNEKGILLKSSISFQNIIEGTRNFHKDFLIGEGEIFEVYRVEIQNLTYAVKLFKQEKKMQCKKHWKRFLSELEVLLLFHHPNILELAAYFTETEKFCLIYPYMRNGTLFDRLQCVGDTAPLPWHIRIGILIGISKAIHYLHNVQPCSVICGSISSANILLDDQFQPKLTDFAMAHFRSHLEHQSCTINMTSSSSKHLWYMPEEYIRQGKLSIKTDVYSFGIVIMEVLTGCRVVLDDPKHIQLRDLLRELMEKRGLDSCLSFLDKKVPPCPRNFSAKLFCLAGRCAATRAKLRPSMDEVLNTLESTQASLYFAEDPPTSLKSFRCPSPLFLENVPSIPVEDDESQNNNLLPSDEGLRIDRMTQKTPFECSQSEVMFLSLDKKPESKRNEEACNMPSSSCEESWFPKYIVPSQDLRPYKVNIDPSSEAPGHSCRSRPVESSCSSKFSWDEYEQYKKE

The target in assay [7] is T4, Dual specificity mitogen-activated protein kinase kinase 5 (Homo sapiens, UniProt Q13163).
T4 sequence (Q13163 whole entry): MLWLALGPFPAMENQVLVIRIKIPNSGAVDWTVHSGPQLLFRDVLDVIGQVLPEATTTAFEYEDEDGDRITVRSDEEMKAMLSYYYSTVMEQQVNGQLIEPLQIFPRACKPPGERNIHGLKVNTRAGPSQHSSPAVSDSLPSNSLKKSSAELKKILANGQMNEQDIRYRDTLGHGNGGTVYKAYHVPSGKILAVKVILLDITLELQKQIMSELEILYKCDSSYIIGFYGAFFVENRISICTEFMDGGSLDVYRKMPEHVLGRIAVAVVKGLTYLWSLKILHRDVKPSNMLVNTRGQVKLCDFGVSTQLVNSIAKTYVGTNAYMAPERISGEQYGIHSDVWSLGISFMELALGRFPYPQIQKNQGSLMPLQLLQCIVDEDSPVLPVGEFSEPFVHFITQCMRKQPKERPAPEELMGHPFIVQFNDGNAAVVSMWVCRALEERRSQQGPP

The target in assay [8] is S-adenosylmethionine synthase isoform type-2 (Homo sapiens, UniProt P31153).
S-adenosylmethionine synthase isoform type-2, sequence (P31153 whole entry, canonical isoform): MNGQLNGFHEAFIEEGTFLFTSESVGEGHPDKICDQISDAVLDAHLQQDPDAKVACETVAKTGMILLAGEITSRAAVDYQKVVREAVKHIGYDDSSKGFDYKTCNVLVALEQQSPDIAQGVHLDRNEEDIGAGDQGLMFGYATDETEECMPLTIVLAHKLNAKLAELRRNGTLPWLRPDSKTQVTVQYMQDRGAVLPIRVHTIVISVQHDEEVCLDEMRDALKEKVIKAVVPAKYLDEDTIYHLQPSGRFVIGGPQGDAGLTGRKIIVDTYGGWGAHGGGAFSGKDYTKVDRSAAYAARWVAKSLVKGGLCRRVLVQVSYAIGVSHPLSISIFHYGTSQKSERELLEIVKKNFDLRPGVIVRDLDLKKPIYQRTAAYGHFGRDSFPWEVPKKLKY
The target of assay [9] is cAMP-dependent protein kinase catalytic subunit gamma (Homo sapiens, UniProt P22612).
cAMP-dependent protein kinase catalytic subunit gamma, sequence (P22612 whole entry): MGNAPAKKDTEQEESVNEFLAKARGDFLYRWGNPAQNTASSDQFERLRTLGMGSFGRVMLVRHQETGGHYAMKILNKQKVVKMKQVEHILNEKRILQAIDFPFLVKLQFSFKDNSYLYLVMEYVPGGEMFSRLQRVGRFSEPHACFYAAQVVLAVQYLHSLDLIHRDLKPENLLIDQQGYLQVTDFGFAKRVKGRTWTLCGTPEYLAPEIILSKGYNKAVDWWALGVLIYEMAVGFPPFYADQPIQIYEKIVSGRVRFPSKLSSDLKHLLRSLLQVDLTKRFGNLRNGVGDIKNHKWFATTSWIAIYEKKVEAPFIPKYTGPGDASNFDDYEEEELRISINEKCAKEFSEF
The target of assay [10] is Structural maintenance of chromosomes protein 2 (Homo sapiens, UniProt O95347).
Structural maintenance of chromosomes protein 2, sequence (O95347 whole entry): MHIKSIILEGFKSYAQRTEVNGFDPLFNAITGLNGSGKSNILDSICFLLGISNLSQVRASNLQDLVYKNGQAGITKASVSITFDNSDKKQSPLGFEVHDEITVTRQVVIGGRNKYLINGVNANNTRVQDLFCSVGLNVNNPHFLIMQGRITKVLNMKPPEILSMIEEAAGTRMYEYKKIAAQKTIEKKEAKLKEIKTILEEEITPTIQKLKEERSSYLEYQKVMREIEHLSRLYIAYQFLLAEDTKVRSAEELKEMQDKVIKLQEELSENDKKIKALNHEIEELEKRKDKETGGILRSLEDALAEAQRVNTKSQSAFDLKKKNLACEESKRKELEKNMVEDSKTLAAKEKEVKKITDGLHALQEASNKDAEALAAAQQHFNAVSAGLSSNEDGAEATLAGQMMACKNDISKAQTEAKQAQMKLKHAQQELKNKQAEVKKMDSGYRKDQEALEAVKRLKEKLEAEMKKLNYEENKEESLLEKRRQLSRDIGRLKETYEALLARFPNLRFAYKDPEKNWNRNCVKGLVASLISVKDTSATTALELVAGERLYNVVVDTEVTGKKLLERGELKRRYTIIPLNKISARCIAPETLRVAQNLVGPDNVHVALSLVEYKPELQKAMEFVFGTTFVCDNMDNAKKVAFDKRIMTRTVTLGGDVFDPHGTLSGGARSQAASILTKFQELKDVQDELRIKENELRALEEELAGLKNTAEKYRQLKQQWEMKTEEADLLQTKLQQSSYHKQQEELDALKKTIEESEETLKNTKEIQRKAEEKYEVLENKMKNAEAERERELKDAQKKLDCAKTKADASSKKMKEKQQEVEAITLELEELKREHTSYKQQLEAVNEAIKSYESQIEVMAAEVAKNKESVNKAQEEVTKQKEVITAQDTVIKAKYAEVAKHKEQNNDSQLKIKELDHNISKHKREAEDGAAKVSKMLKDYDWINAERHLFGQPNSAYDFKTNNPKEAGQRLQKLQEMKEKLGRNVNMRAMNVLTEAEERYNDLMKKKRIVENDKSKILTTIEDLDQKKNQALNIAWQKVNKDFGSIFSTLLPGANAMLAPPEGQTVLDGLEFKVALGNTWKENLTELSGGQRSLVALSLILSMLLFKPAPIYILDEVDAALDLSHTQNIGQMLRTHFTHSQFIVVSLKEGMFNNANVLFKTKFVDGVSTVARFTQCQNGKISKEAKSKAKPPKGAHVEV
Note: in the data inactive means no Kd found up to 30 µM.

Cyclin-dependent kinase 7, sequence (P50613 whole entry): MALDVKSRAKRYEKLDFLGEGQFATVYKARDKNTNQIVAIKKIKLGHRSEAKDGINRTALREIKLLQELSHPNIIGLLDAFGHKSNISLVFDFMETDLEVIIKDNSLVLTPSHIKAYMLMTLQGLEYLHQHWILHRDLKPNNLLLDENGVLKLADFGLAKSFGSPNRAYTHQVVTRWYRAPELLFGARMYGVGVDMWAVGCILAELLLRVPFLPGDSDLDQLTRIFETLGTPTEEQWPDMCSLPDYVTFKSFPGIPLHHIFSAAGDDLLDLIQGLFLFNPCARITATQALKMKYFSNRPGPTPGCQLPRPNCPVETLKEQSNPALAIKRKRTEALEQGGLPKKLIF

For orientation: Kd means the concentration at which binding is half-saturated. Take `C[C@@H](c1ccc2nccn2c1)n1nnc2ncc(-c3cnn(C)c3)nc21` [SAVOLITINIB]: the Kd in assay [1], in assay [2], in assay [3], in assay [4], in [5] and in assay [6] was > 30 µM (inactive) throughout. The Kd in assay [7], in assay [8], in assay [9] and in assay [10] was > 30 µM (inactive) each time.
For the compound `CN1CCC(COc2cnc(-c3cccc(Cn4nc(-c5cccc(C#N)c5)ccc4=O)c3)nc2)CC1` [TEPOTINIB], the Kd in assay [1], in assay [2], in [3], in [4], in assay [5] and in assay [6] was > 30 µM (inactive) throughout. Further, the Kd in assay [7], in assay [8], in assay [9] and in assay [10] was > 30 µM (inactive) throughout.
For the compound `CNC(=O)c1cc(Oc2ccc(NC(=O)Nc3ccc(Cl)c(C(F)(F)F)c3)c(F)c2)ccn1` [REGORAFENIB], the Kd in assay [1], in assay [2], in assay [3], in [4], in [5] and in [6] was > 30 µM (inactive) in each case. Further, the Kd in [7], in [8], in [9] and in [10] was > 30 µM (inactive) in each case.
`COc1cc2nccc(Oc3ccc(NC(=O)Nc4cc(C)on4)c(Cl)c3)c2cc1OC` [TIVOZANIB]: the Kd in [1], in assay [2], in [3], in assay [4], in assay [5] and in assay [6] was > 30 µM (inactive) throughout. In addition, the Kd in assay [7], in [8], in assay [9] and in [10] was > 30 µM (inactive) in each case.
Consider `N[C@@H]1CCCN(c2c(/C=C3\SC(=O)NC3=O)cccc2-c2ccccc2)C1`, for which the Kd in assay [1], in assay [2], in assay [3], in [4], in assay [5] and in assay [6] was > 30 µM (inactive) each time. Further, the Kd in assay [7], in assay [8], in [9] and in [10] was > 30 µM (inactive) in each case.
On to `COc1cc(OC)c(/C=C/S(=O)(=O)Cc2ccc(OC)c(NCC(=O)O)c2)c(OC)c1` [RIGOSERTIB], for which the Kd in assay [1] was > 30 µM (inactive); in assay [2] it was > 30 µM (inactive); in [3], > 30 µM (inactive); in assay [4] it was > 30 µM (inactive); in assay [5] it was 5.58 µM (active); in assay [6], > 30 µM (inactive). The Kd in assay [7], in assay [8], in assay [9] and in assay [10] was > 30 µM (inactive) throughout.
Turning to `Cc1cc(-c2cc(O)ccc2Cl)cc2nnc(Nc3ccc(OCCN4CCCC4)cc3)nc12`, the Kd in [1], in assay [2], in [3], in assay [4], in assay [5] and in assay [6] was > 30 µM (inactive) in each case. Also, the Kd in [7], in assay [8], in assay [9] and in assay [10] was > 30 µM (inactive) throughout.
For `CCn1c(=O)c(-c2cc[nH]n2)cc2c(C)nc(N)nc21` [VOXTALISIB], the Kd in assay [1], in assay [2], in assay [3], in assay [4], in [5] and in assay [6] was > 30 µM (inactive) each time. The Kd in [7], in assay [8], in assay [9] and in assay [10] was > 30 µM (inactive) in each case.
In the case of `Cc1cc2c(F)c(Oc3ncnn4cc(OC[C@@H](C)OC(=O)[C@H](C)N)c(C)c34)ccc2[nH]1` [BRIVANIB ALANINATE], the Kd in [1], in assay [2], in assay [3], in assay [4], in assay [5] and in assay [6] was > 30 µM (inactive) each time. For the same compound, the Kd in [7], in assay [8], in [9] and in assay [10] was > 30 µM (inactive) each time.
`CN1CCC(CNc2ccc3ncc(-c4cccc(OC(F)(F)F)c4)n3n2)CC1` [SGI-1776]: the Kd was > 30 µM (inactive) in assay [1]; > 30 µM (inactive) in assay [2]; > 30 µM (inactive) in assay [3]; > 30 µM (inactive) in [4]; > 30 µM (inactive) in assay [5]; 0.026 µM (active) in [6]. For the same compound, the Kd in assay [7], in [8], in [9] and in [10] was > 30 µM (inactive) throughout.
